The source of these data is patent publication US10690661B2, “Yeast-based biosensor” (priority 2014, dated 2020).

Experiment [1] concerns the target Mutant receptors derived from RecCys1 mutagenesis. Briefly: Dose response of mutant receptors evolved for cystatin chimera Cys2. The class given is cell-based, Saccharomyces cerevisiae. As to conditions: FIG. 9b. The text has this:
(§1) Receptor activation was coupled to green fluorescent protein (GFP) expression by cloning GFP downstream of the Ste2p-activated FUS1 promoter. Therefore a receptor mutant that is successfully activated by the POI will result in the cell fluorescing green. The discriminating power of the screen is improved by including an internal control, constitutive expression of mKate (a red fluorescent protein). Red fluorescence corresponds to cell size, and allows us to normalize the GFP measurement for more accurate sorting. […] The initial HTS has false positive (FP) rates of 20% and false negative (FN) rates of 10%. The FP and FN rate is overcome by doing multiple rounds of enrichment. In four rounds of enrichment, a population of cells is isolated that originally was 1 in 10^6.
(§2) Initial attempts to evolve directly for the cystatin/GSS peptides were unsuccessful. To take smaller evolutionary steps, chimera peptides were designed that were more similar to α-factor. Receptors were evolved to recognize peptide that contain several changes in the peptide sequence (FIG. 9a-c).
Receptors have been successfully evolved for some chimeras. Two steps have been completed for cystatin (evolving for Cys1 and then using that receptor as a parent to evolve for Cys2) and one step for GSS.

Experiment [2] concerns evolved cystatin receptor. The class given is cell-based, Saccharomyces cerevisiae.
The target of experiment [3] is Mutant receptors (RecCys1). Briefly: Dose response of mutant receptors evolved for cystatin chimera Cys1. As to conditions: FIG. 9a. In kind it is cell-based, Saccharomyces cerevisiae.
Source text: as §1, §2

The test system of another experiment is Mutant receptor RecGssB. Briefly: Dose response of mutant receptors evolved for GSS chimera GssB. The class given is cell-based, Saccharomyces cerevisiae.
Source text: as §1, §2

The target in experiment [4] is T1, native Ste2 receptor (Saccharomyces cerevisiae, UniProt D6VTK4, A176T/D201G/D370N/S34T).
T1 construct: contains yeast Sterile2 (Ste2) receptor between the constitutive GPD promoter and the CYC1 terminator; expressed in transfected cells; host or cells: S. cerevisiae MPY578t5 derivatives (native STE2 removed), plasmid pJB036
T1 sequence (D6VTK4 whole entry S34T/A176T/D201G/D370N): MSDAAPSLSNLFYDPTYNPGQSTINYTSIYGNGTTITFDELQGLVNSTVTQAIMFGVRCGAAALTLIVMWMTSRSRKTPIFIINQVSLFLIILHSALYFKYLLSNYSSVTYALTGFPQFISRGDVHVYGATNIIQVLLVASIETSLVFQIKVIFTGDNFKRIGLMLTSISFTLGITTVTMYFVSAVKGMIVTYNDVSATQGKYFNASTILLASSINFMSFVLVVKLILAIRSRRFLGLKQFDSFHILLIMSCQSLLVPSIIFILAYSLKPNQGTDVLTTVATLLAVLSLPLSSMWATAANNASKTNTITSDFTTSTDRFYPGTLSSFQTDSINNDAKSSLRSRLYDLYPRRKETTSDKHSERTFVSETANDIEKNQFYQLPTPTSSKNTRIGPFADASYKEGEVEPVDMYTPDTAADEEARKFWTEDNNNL
As to conditions: physiological concentrations; previous literature; cited from earlier work.

The subject of experiment [5] is mutant Ste2 receptors isolated for Variant 56. Briefly: GFP/RFP reporter dose response, mutants isolated for sensitivity to ligand Variant 56.
Experiment [6] concerns the target Mutant 56.5 (mutant Ste2 receptor). Briefly: GFP/RFP reporter dose response, isolated mutant receptor Mutant 56.5. As to conditions: alpha factor on Mutant 56.5, compared with native Ste2; FIG. 4B.
The subject of experiment [7] is evolved receptors (from Ste2p). Briefly: Sensitivity enhancement dose response of evolved receptors. In kind it is cell-based, Saccharomyces cerevisiae. As to conditions: FIG. 11.
Experiment [8] addresses Mutant 44.1 (mutant Ste2 receptor). Briefly: GFP/RFP reporter dose response, isolated mutant receptor Mutant 44.1. As to conditions: alpha factor on Mutant 44.1, compared with native Ste2; FIG. 3B.
In experiment [9] the test system is re-mutagenized mutant Ste2 receptor library. Briefly: Screen of library made by re-mutagenizing a Variant 56-sensitive mutant receptor. In kind it is cell-based, Saccharomyces cerevisiae. Conditions: FIG. 7a. The text has this:
Specificity can be increased with iterative selection and counter-selection (FIG. 7b). […] Round 2 library mutants were also screened for lack of activity for α-factor, confirming the evolution of receptors for specificity against α-factor (FIG. 7c).

Experiment [10] has as its target T1, native Ste2 receptor. Briefly: GFP/RFP reporter dose response in yeast expressing the native Ste2 receptor. Conditions: compared to the native ligand. The class given is cell-based.

Entries after “also recorded” stand apart in the source; their conditions may differ.

In the case of ALALKPGEPMY [Cys2], the “EC50 relative to RecSte2p” value in [1] was “lower”.
Regarding “ALDFAVGEYNK (listed as Cystatin chimera) [Cys5]”, in experiment [2] (FIG. 13B), the “response of evolved cystatin receptor” value is given as “rises in response”. Moreover, the “response of receptor mutants evolved from Ste2p (dose response curve)” value in experiment [2] (FIG. 14A-C) is reported as “respond”.
Turning to HALALKPGEPMY [Cys1], in experiment [3], the “EC50 relative to RecSte2p” value is given as “lower”.
Consider LRLLALKPGQPLYGR [Gss1], for which the “effect of GssB-enhancing receptor mutations on response” value in the experiment with Mutant receptor RecGssB (receptors carrying mutations that enhance the response to GssB) is reported as “enhance response”.
WAWLQLKPGQPMY: the “response of Ste2 to the ligand” value on native Ste2 receptor [4] was “very low response, if any”.
Regarding WHWLQLKPGEPLYGR [GssB], the “EC50 relative to RecSte2p” value on Mutant receptor RecGssB (FIG. 9c) was “lower”.
In the case of WHWLQLKPGQPMY [α-factor], in [5] (FIG. 4B), the “activity of isolated mutants for the native pheromone” value is “maintained some activity”. The “EC50 relative to Ste2” value in experiment [6] and in experiment [8] was “significantly higher” each time. Also, the “concentration at which evolved receptors respond, relative to wild type/Ste2p receptor” value in [7] was “concentrations lower than the wild type”. In addition, the “response of evolved receptor to the native ligand” value in the experiment on Mutant receptor RecGssB (FIG. 9d) is recorded as “do not respond; also recorded: no longer responds”.
Consider WHYLQLKPGQPMY [Variant 56], for which the “EC50 relative to Ste2” value in experiment [5] (all five isolated mutants, FIG. 4A, FIG. 5) is recorded as “significantly lower”. Also, on native Ste2 receptor [4], the “response of Ste2 to the ligand” value is reported as “very low response, if any”. In addition, the “activity of new library after second round of mutagenesis” value in experiment [9] was “increased activity”. Also, the “activity of the native Ste2 receptor for the ligand” value at native Ste2 receptor [10] is “little activity”.
